# From patent publication US20200390722A1, “COMPOSITIONS AND METHODS FOR THE REMOVAL OF EAR WAX” (Specialty Drug and Device, LLC, priority 2016, published 2020)
# Key:
# [1] = Test-tube comparison of SFA (F6H8) and common remedies on about 100 mg human ear wax (Example 2); design: key to Effects on Ear Wax (Cerumen) Samples: NC, No Change; BP, Bubbles Produced; SG, Softening; FD, Fully Dispersed; details: for Effects on Ear Wax (Cerumen) Samples: Human; for Visible changes to ear wax samples (in words): human, 30 seconds with gentle agitation
# Method: (§1) Approximately 100 mg of human ear wax was weighed into each of four small test tubes and numbered 1-4. In a second series, approximately 100 mg of animal cerumen from dogs was placed into four different test tubes and numbered 5-8. About 1 ml of the following material was then added to the respective dishes as follows: (1) to tubes #1 and 5, F6H8; (2) to tubes #2 and 6, hydrogen peroxide, 3%; (3) to tubes #3 and 7, carbamide peroxide, 6.5% (Murine Earwax Removal Drops); and (4) to tubes #4 and 8, sodium bicarbonate, 5% (prepared by dissolved 5 grams of sodium bicarbonate in 100 ml of distilled water. Results of these studies are presented in Table 1, below.
# [2] = Test-tube comparison of SFA (F6H8) and common remedies on about 100 mg dog cerumen (Example 2); design: key to Effects on Ear Wax (Cerumen) Samples: NC, No Change; BP, Bubbles Produced; SG, Softening; FD, Fully Dispersed; details: for Effects on Ear Wax (Cerumen) Samples: Dog; for Visible changes to ear wax samples (in words): dog, 30 seconds with gentle agitation
# Method: as §1
# [3] = Cotton bud laden with dog ear wax swirled through about 1 ml F6H8 (initial studies, Example 1); details: dog cerumen on cotton bud swirled or shaken in F6H8; hair particles etc. not dissolved
# From the text: (§2) In these studies, which are reflected below in Table 1, samples of ear wax were collected on cotton buds from animals or humans. A portion of each sample was placed into a small tube containing an SFA (F6H8) and gently shaken.
# (§3) The invention is based in substantial part upon initial studies that provided surprising results. A small quantity of F6H8 semi-fluorinated alkane was placed into each of 5 test tubes. Samples of cerumen from animal or human ears were collected on cotton buds. Sufficient ear wax was collected that quantities of the material were visible on cotton buds used to harvest the materials. Separate cotton buds were used to collect cerumen from four dogs and two humans. In a step-wise manner, one cotton bud, laden with ear wax, was gently swirled through a single test tube containing an aliquot of F6H8 SFA. The study was repeated three times for cotton buds with ear wax from dogs and a second series of two tests, as previously described, were carried-out with cotton buds laden with human cerumen. […] Importantly, in the study the cerumen was dissolved by the SFA but the other matter (hair particles, etc.) were not dissolved. […] Such products include MURINE® Ear Drops, DEBROX® Earwax Removal, Flents Earwax Remover, and CERUMENEX® and also includes patents for compositions containing glycerin, glycols, peroxide plus urea and cyclodextrin containing compositions. […]
# accumulation of ear wax [4] = assay: Prophylaxis to prevent or retard accumulation of ear wax, one human (Example 4); assay type: in vivo
# Method: (§4) The effectiveness of F6H8 as a prophylaxis to prevent or retard accumulation of ear wax was evaluated in one human and one dog. The ear canal of the person and the canine were cleaned thoroughly prior to the evaluation of prophylaxis with SFA. Then, on a regular basis (five of seven days on average), 20-25 ul of F6H8 were applied to a cotton bud and the right ear only of each subjects was gently swabbed for about 15 seconds. In each instance, the contralateral ear served as a control in this study. […] Visual observation was confirmed by using a clean cotton bud to swab each ear of both subjects for 10-15 seconds.
# accumulation of ear wax [5] = assay: Prophylaxis to prevent or retard accumulation of ear wax, one dog (Example 4); assay type: in vivo
# Method: as §4
# [6] = Cotton bud laden with human ear wax swirled through about 1 ml F6H8 (initial studies, Example 1); details: human cerumen on cotton bud swirled or shaken in F6H8; hair particles etc. not dissolved
# From the text: as §2, §3
# [7] = 30 Seconds, about 1 ml on approx. 100 mg ear wax, gentle agitation
# [8] = 30 Seconds, about 1 ml on approx. 100 mg cerumen, gentle agitation
# [9] = 20-25 ul on cotton bud, about five of seven days, end of three month trial
# [10] = swab 10-15 seconds at end of three month trial
Compound,Effects on Ear Wax (Cerumen) Samples ([1]; 5 Minutes),Effects on Ear Wax (Cerumen) Samples ([1]; 15 Minutes),"Effects on Ear Wax (Cerumen) Samples [1, 7]",Visible changes to ear wax samples (in words) [1],Effects on Ear Wax (Cerumen) Samples ([2]; 5 Minutes),Effects on Ear Wax (Cerumen) Samples ([2]; 15 Minutes),"Effects on Ear Wax (Cerumen) Samples [2, 8]",Visible changes to ear wax samples (in words) [2],Dissolution of cerumen from the ear wax sample (in words) [3],Visual observation of treated right ear vs untreated contralateral ear (accumulation of ear wax [4]; [9]),Ear wax collected by clean cotton bud from treated right ear vs untreated left ear (accumulation of ear wax [4]; [10]),Visual observation of treated right ear vs untreated contralateral ear (accumulation of ear wax [5]; [9]),Ear wax collected by clean cotton bud from treated right ear vs untreated left ear (accumulation of ear wax [5]; [10]),Dissolution of cerumen from the ear wax sample (in words) [6]
"O=C([O-])O.[Na+] [Sodium Bicarbinate, 5%, sodium bicarbonate]",NC,NC,NC,failed to produce visible changes,NC,NC,NC,failed to produce visible changes,,,,,,
"OO [Hydrogen Peroxide, 3%, hydrogen peroxide]",BP,"SG and BP,",NC,failed to produce visible changes,BP,"SG and BP,",NC,failed to produce visible changes,,,,,,
CCCCCCCCC(F)(F)C(F)(F)C(F)(F)C(F)(F)C(F)(F)C(F)(F)F [SFA (F6H8)],FD,FD,FD,,FD,FD,FD,,dissolved completely,visibly cleaner and contained less ear wax and associated hair and other debris,collected less ear wax,visibly cleaner and contained less ear wax and associated hair and other debris,collected less ear wax,dissolved completely
